Patent US4522839A, “3-Substituted 2,4,6-trihalogenated benzamides as sweetening agents” (Schering Aktiengesellschaft, priority 1980, dated 1985)
Like-named read-outs stand apart in the source and are kept apart here. Residues, ends and D or L forms follow the SMILES beside them.

How the values were obtained:
[1] = Identification threshold values (cts) of sweeteners (triangle test) and comparison with sucrose; parameters: species or system persons; conditions: for Identification Threshold Values (cts): tap water, pH 6-7 if necessary with NaOH, 5 persons, triangle test, 1 ml samples; for f suc, mol (cts): compound, sweetening power relative to sucrose, molar
Method: These sensory investigations were conducted by 5 persons; all samples were encoded by a person not participating in the test. […] Consecutive samples of 1 ml were consumed. The approximate concentration values determined in a preliminary test were inserted, in the main experiment, in the middle of a dilution series. All solutions of a compound were encoded with two water samples (triangle test). The testers must indicate which of the three samples of decreasing concentration are considered to be sweet. The identification threshold value is set forth to be the lowest concentration range (cts) at which the testers still render a correct judgment.

[2] = Degree of sweetening compared with 5% sucrose solution (taste test); parameters: species or system healthy volunteers; conditions: times the sweetening power of sucrose (sucrose = 1), average of 3 taste tests
Method: (§1) The taste tests were conducted by three healthy volunteers; the solutions were coded by letter-number combinations and randomized so that the tester could not know which compound he or she tasted. Also the reference solution (5% sucrose) remained part of the randomizing plan initially, for the purpose of general taste characteristics of the compounds.

mice = conditions: for Number of Dead Animals/Number of Animals Utilized: mice, intraperitoneal
[3] = General taste evaluation of aqueous solutions in concentration stages 1-8 (blind taste test); parameters: species or system healthy volunteers; conditions: average results of 3 taste tests
Method: The following concentrations correspond to the 8 concentration stages tested:
as §1

[4] = literature (Hager's Manual), b158: also determined by all three testers in a blind taste test, cited from earlier work
in vivo = conditions: mouse, ip

SMILES | Identification Threshold Values (cts) [1] | Degree of Sweetening [2] | f suc, mol (cts) [1] | further results
NC(=O)c1c(I)cc(I)c(CCC(=O)O)c1I [E, 3-(3-carbamoyl-2,4,6-triiodophenyl)propionic acid] | 1.0 to 2.0 µmol/L | – | – | –
O=C1NS(=O)(=O)c2ccccc21.[Na] [Sodium Saccharin] | 15 to 30 µmol/L | 400 | 489 | Number of Dead Animals/Number of Animals Utilized (mice; 3.0 g/kg BW): 0/10; Number of Dead Animals/Number of Animals Utilized (mice; 6.0 g/kg BW): 5/10; General Taste Evaluation, concentration stage 2 ([3]; 25.0 mg/100 ml (1/200 of 5% sucrose)): Sweet; General Taste Evaluation, concentration stage 1 ([3]; 50.0 mg/100 ml (1/100 of 5% sucrose)): Sweet; Degree of sweetening known from the literature [4]: 400
NC(=O)c1c(Br)cc(Br)c(CCC(=O)O)c1Br [A, 3-(3-carbamoyl-2,4,6-tribromophenyl)propionic acid] | 0.6 to 1.4 µmol/L | 6000-7000 | – | General compatibility (mice; intraperitoneal injection in mice): approximately the same good compatibility as sodium saccharin; Number of Dead Animals/Number of Animals Utilized (mice; 3.0 g/kg BW): 2/10; Number of Dead Animals/Number of Animals Utilized (mice; 6.0 g/kg BW): 6/10; Number of Dead Animals/Number of Animals Utilized (mice; 9.0 g/kg BW): 10/10; General Taste Evaluation, concentration stage 7 ([3]; 0.781 mg/100 ml (1/6400 of 5% sucrose)): Sweet; General Taste Evaluation, concentration stage 6 ([3]; 1.563 mg/100 ml (1/3200 of 5% sucrose)): Sweet; LD50 (in vivo): ~6000 mg/kg
OC[C@H]1O[C@@](CO)(O[C@H]2O[C@H](CO)[C@@H](O)[C@H](O)[C@H]2O)[C@@H](O)[C@@H]1O [Sucrose] | 10000 to 12000 µmol/L | 1 | 1 | –
NC(=O)c1c(I)cc(I)c(OCC(=O)O)c1I [F, 3-carbamoyl-2,4,6-triiodophenoxyacetic acid] | 15 to 25 µmol/L | – | – | –
COC(=O)[C@H](Cc1ccccc1)NC(=O)[C@@H](N)CC(=O)O [Aspartame] (H-Asp-Phe-OMe) | 20 to 60 µmol/L | – | 275 | –
CCOc1ccc(NC(N)=O)cc1 [Dulcin] | 15 to 30 µmol/L | – | 489 | –
O=S(=O)(O)NC1CCCCC1 [Cyclamate] | 1000 to 3000 µmol/L | < 100 | 5.5 | Degree of sweetening known from the literature [4]: 30-70; Degree of sweetening known from the literature ([4]; listed as Sodium cyclamate): 70
NC(=O)c1c(Cl)cc(Cl)c(CCC(=O)O)c1Cl [G, 3-(3-carbamoyl-2,4,6-trichlorophenyl)propionic acid] | 2.5 to 4.0 µmol/L | – | – | –
